Data taken from patent publication US20220380402A1, “6-HYDRAZINOADENOSINE COMPOUNDS WITH A2A ADENOSINE RECEPTOR AGONIST ACTIVITY” (ACADEMY OF MILITARY MEDICAL SCIENCES, priority 2019, published 2022).

How the values were obtained:
A2A adenosine receptor = biological target: T1, A2A adenosine receptor (Homo sapiens, UniProt P29274); test: Radioligand binding test ([3H]CGS21680 displacement, hA2A HEK-293 cell membrane); conditions: calculated from IC50 by Cheng and Prusoff equation; [3H]CGS21680 25 nM, Km 22 nM; 25° C., 90 minutes
T1 construct: purchased PerkinElmer Research Products (Boston, Mass.); host or cells: HEK-293 cells, stably transfected; membrane preparation
Procedure: [3H]CGS21680 (2-[p-(2-carboxyethyl)phenylethylamino]-5′-N-ethylformamidoadenosine, [carboxy-1-ethyl-3H(N)]; 250 μCi) was purchased from PerkinElmer Research Products (Boston, Mass.).
Cell membrane stably transfected with (human) A2A adenosine receptor was prepared in HEK-293 cells. The cell membrane was obtained from PerkinElmer Research Products (Boston, Mass.).
CGS21680 (2-[p-(2-carboxyethyl)phenylethylamino]-5′-N-ethylformamidoadenosine) was purchased from Selleck (Shanghai, CN).
The A2A adenosine receptors used were all expressed in the cell membrane. […] The specific binding percentage of [3H]CGS21680 was calculated according to the CPM value, % specific binding of [3H]CGS21680=(CPMsample−CPMLow Control)/(CPMHigh Control−CPMLow Control)*100, in which
High Control was 0.5% DMSO, Low Control was 100 μM CGS21680. The IC50 value was calculated based on the compound concentration and the specific binding percentage of [3H]CGS21680 by curve fitting.
The inhibition constant (Ki) value was calculated from the IC50 value according to the Cheng and Prusoff equation, Ki=IC50/(1+[S]/Km), in which [S] was the concentration of the radioligand (25 nM), and Km was the human A2AAR dissociation constant (22 nM) of [3H]CGS21680. The inhibition constant Ki values for Compounds 1 to 20 of the present invention binding to A2A adenosine receptor were shown in Table 1.

blood-brain barrier = test: Animal experiment of blood-brain barrier opening (FITC-Dextran in brain of SD rats); assay type: in vivo
Procedure: Fluorescein-labeled dextran FITC-Dextran (CAS: 60842-46-8) with a molecular weight of 10,000 MW was purchased from […] (Shanghai) Chemical Industry Development Co., Ltd.; PBS solution and experimental animal SD rats were obtained from commercial sources. FITC-Dextran solution was prepared with PBS to obtain six concentration gradients (0.001, 0.01, 0.1, 1, 0.5, 10 μg/ml), and a FITC-Dextran concentration standard curve was prepared by using microplate reader (λex=490 nm, λem=520 nm); 10 mg/ml FITC-Dextran solution was separately prepared, Compound 5 was added to PBS solution to make 1 mg/ml solution, 1 ml of 10 mg/ml FITC-Dextran solution and 1 ml of 1 mg/ml Compound 5 PBS solution were taken to make an administration solution; 1 ml of 10 mg/ml FITC-Dextran solution and 1 ml of PBS solution taken to make a blank control solution; 6 SD rats were injected with 2 ml of the administration solution respectively in the tail vein, while another 6 SD rats were injected with 2 ml of the blank control solution in the tail vein; after 30 minutes, the brain tissues of all SD rats were taken out, homogenized and centrifuged at 10,000 rpm for 15 minutes, and the supernatants were taken for testing; and a microplate reader (λex=490 nm, λem=520 nm) was used for the fluorescence detection of the solutions to be tested. […]

[1] = biological target: human adenosine receptor A2A (Homo sapiens, UniProt P29274); test: Adenosine receptor A2A cAMP test (LANCE Ultra cAMP, hADORA2A-HEK293 cells); assay type: cell-based
From the text: Experimental reagents and consumables: DMEM/F12, G418, Penicillin-Streptomycin, Versene Solution, HEPES, Hank's Buffered Saline Solution, PBS (pH 7.4, 1×, sterile), FBS, BSA Stabilizer 7.5%, Rolipram, NECA, were purchased from Gibico, Hyclone and Sigma, respectively. LANCE® Ultra cAMP kit (Eu-cAMP tracer, Ulight-anti-cAMP reagent, cAMP detection buffer) and hADORA2A-HEK293 cells were purchased from PerkinElmer Research Products (Boston, Mass.). All other reagents were of analytical grade and obtained from commercial sources. 384-well polypropylene microplate and 384-well white solid plate were purchased from Labcyte and Corning, respectively.
Cells stably expressing human adenosine receptor A2A (hADORA2A-HEK293 cells) were cultured in DMEM/F12 medium containing 10% FBS, 1× Penicillin-Streptomycin and 400 μg/ml G418 in a 37° C., 5% CO2 environment. Before the experiment, the cells were digested with Versene solution, and the cells were collected by centrifugation at 200 g at room temperature for 5 minutes, and finally resuspended with detection buffer (Hank's buffered saline solution, containing 5 mM HEPES, 0.1% BSA stabilizer and 10 μM Rolipram, pH 7.4). TECAN automated pipetting workstation was used to prepare a compound source plate by 3-fold diluting the compound in a 384-well polypropylene microplate with DMSO to form 11 concentration points, in which the 11 concentration points of the compound were 10 mM, 3.33 mM, 1.11 mM, 0.37 mM, 0.12 mM, 0.041 mM, 0.013 mM, 4.57×10^−3 mM, 1.52×10^−3 mM, 5×10^−4 mM and 1.7×10^−4 mM, respectively. Echo ultrasonic pipetting system (Labcyte) was used to transfer the test compound from the compound source plate to the detection plate, in which the volume of the compound transferred was 10 nl/well. The hADORA2A-HEK293 cell suspension was diluted with detection buffer to 30,000 cells/ml, and the cell suspension was transferred to the detection plate at a volume of 10 μl/well (300 cells/well). The detection plate was centrifuged at 150 g for 1 minute and pre-incubated at room temperature for 30 minutes. […] EnVison microplate reader (EnVision multimode plate reader, PerkinElmer) was used to test the level of cyclic adenosine monophosphate in the final solution (λex=320 nm, λem=665 nm & 615 nm). The EC50 (nM) value of the compound interacting with A2A adenosine receptor to stimulate the production of a level of cyclic adenosine monophosphate was calculated. The compound A2A receptor agonist titer was expressed as the EC50 (nM) value of the compound interacting with the A2A adenosine receptor to stimulate the production of a level of cyclic adenosine monophosphate.

Chain of human adenosine receptor A2A (P29274 whole entry): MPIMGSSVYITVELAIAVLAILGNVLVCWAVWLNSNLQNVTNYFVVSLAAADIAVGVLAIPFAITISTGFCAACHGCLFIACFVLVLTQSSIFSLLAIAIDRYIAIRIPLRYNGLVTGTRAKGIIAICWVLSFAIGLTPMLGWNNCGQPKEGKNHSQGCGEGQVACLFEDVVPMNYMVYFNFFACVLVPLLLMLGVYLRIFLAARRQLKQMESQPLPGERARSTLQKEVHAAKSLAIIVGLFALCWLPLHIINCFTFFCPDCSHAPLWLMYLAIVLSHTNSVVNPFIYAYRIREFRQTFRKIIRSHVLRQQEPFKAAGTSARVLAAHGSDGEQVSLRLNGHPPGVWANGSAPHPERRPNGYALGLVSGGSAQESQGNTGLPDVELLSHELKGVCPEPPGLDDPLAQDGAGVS
T1 sequence (P29274 whole entry): as above

SMILES	Ki (A2A adenosine receptor)	Opening of the blood-brain barrier (in words) (blood-brain barrier; SD rats, FITC-Dextran co-administered by tail vein, 30 minutes)	melting point	hA2AAR agonist function (in words) ([1]; conclusion from cAMP test)	EC50 ([1]; hADORA2A-HEK293 cells, 300 cells/well, stimulation of cyclic adenosine monophosphate)	FITC-Dextran concentration in the brain of SD rats (blood-brain barrier; tail vein injection of 2 ml (10 mg/ml FITC-Dextran 10,000 MW + 1 mg/ml compound in PBS, 1:1), brain homogenate supernatant after 30 minutes, average of 6 rats, blank control 0.021)
OC[C@H]1O[C@@H](n2cnc3c(N/N=C/c4ccc(-c5ccc(Br)cc5)o4)ncnc32)[C@H](O)[C@@H]1O [Compound 5, (2R,3R,4S,5R)-2-{6-{2-{(E)-[5-(4-bromophenyl)furan-2-yl]methylene}hydrazino}-9H-purin-9-yl}-5-(hydroxymethyl)tetrahydrofuran-3,4-diol]	353 nM	could open the blood-brain barrier	162 °C			
OC[C@H]1O[C@@H](n2cnc3c(N/N=C/c4ccc(OCc5ccc(F)cc5)cc4)ncnc32)[C@H](O)[C@@H]1O [Compound 7, (2R,3R,4S,5R)-2-{6-{2-{(E)-4-[(4-fluorobenzyl)oxy]benzylidene}hydrazino}9H-purin-9-yl}-5-(hydroxymethyl)tetrahydrofuran-3,4-diol]	13.8 nM		206 °C	hA2AAR agonists	18.6 nM	0.057 µg/mL
